Source: article PMC10165273, “Itch receptor MRGPRX4 interacts with the receptor activity–modifying proteins” (The Journal of Biological Chemistry, 2023)
“And” between values parts separate entries of the source, which are not always exact repeats. Equal entries are not always repeated.

Assays:
Format in all cases: cell-based
MRGPRX4 [1] = target: T1, MRGPRX4 (Homo sapiens, UniProt Q96LA9); assay: BRET2 β-arrestin1 recruitment to MRGPRX4; details: 100 μM agonist (Fig. 5A)
T1 construct: expressed in transfected cells; host or cells: HEK293T
Procedure: (§1) The method for homogenous transfection of β-Arrestin and BRET^2 assay of β-Arrestin recruitment has been described previously ([51]). […] BRET^2 measurements were taken on the BioTek Synergy NEO2 microplate reader.
(§2) For MRGPRX4 DNA titration assays, HEK293T cells were cotransfected with either β-Arrestin1 or β-Arrestin2 with increasing amounts of MRGPRX4 (0.5, 1, or 2 pg/cell).
(§3) The BRET ratio for each sample was determined by calculating the ratio of the light intensity emitted by the GFP10 (515 nm) (acceptor) over the light intensity emitted by the RLuc3 (395 nm) (donor). Net BRET^2 was determined by subtracting the basal BRET^2 (β-arrestin-RLuc3 only) signal from the BRET^2 signals. All BRET values were normalized to the MRGPRX4-only condition.

MRGPRX4 + RAMP3 = target: T2, MRGPRX4 + RAMP3 (Homo sapiens, UniProt Q96LA9); assay: IP1 accumulation, MRGPRX4 coexpressed with RAMP3; parameters: key: % IP1; unstimulated mock = 0%, fully stimulated MRGPRX4 = 100%; details: Figure 4c-f; agonist 100µM; X4:ramp3 1:2; MRGPRX4 = 100
T2 construct: expressed in transfected cells; host or cells: HEK293T

MRGPRX4 [2] = target: T1, MRGPRX4; assay: BRET2 β-arrestin2 recruitment to MRGPRX4; details: 100 μM agonist (Fig. 5B, C)
Text: as §1, §2
To measure the time-course of β-Arrestin2 recruitment to MRGPRX4 and CALCRL, the transfection and general procedure described above was followed, with the modification that Prolume Purple was added first, followed by addition of the appropriate agonists ([51]).
as §3

T2 sequence (Q96LA9 whole entry): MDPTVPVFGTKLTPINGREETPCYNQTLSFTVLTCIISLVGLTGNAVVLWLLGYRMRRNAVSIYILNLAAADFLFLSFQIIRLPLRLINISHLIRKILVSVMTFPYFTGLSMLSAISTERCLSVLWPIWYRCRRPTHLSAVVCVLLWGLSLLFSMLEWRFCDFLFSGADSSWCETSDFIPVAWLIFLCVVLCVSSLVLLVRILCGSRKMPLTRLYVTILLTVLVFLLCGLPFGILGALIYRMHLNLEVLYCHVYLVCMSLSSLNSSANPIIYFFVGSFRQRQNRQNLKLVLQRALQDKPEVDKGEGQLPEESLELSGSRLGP
T1 sequence (Q96LA9 whole entry): as above

| SMILES | β-arrestin1 recruitment to MRGPRX4 (MRGPRX4 [1]) | response to agonist, X4:ramp3.I:2 (MRGPRX4 + RAMP3) | β-arrestin2 recruitment to MRGPRX4 (MRGPRX4 [2]) |
| --- | --- | --- | --- |
| C[C@H](CCC(=O)O)[C@H]1CC[C@H]2[C@@H]3CC[C@@H]4C[C@H](O)CC[C@]4(C)[C@H]3C[C@H](O)[C@]12C [DCA, deoxycholic acid] | did not recruit β-arrestin1 | 55.7055 and 63.4334 | did not observe any β-arrestin2 recruitment |
| C[C@H](CCC(=O)NCCS(=O)(=O)O)[C@H]1CC[C@H]2[C@@H]3CC[C@@H]4C[C@H](O)CC[C@]4(C)[C@H]3C[C@H](O)[C@]12C [TDCA, Taurodeoxycholic acid] | – | 51.7108 and 61.6065 | – |
